Drawing on patent US20250026721A1, “COMPOUNDS AND METHODS FOR MODULATING RAS-PI3K” (Vividion Therapeutics, Inc., priority 2023, published 2025), this text covers IC50 for 23 compounds.

Each structure is given as a SMILES string.

Assay [1] concerns the target T1, PIK3CA_C242 (Homo sapiens, UniProt P42336).
T1 construct: endogenous in cells; host or cells: Jurkat cell lysate
Put plainly: Proteomic TE50 (IA-DTB / TMT mass spectrometry) in Jurkat cell lysate. Type of assay: binding. As to conditions: 1 hour at rt, 7-point dose response. In outline:
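Jurkat lysate (500 μg) treated with compound (7-point, 1:5 dilutions) for 1 h at rt, then labelled with 200 μM IA-DTB for 1 h. After digestion and streptavidin enrichment, the C242 peptide was quantified by targeted MS3 TMT. TE50 was derived from reporter-ion S/N dose-response curves.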

Assay [2] has as its target T2, PIK3CA (Homo sapiens, UniProt P42336).
T2 construct: endogenous in cells; host or cells: Jurkat cell lysate
Put plainly: In vitro ELISA target engagement assay for PIK3CA in Jurkat cellular lysate (competition with PIK3CA Biotin Probe). Particulars: 1 hour at rt, then 500 nM PIK3CA Biotin Probe, read-out: Elisa Target Engagement Assay (TE50). The format is binding. The procedure, abridged:
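Jurkat lysate from sonicated frozen cells was preincubated 1 h at rt with serially diluted compound up to 200 μM, then labelled 1 h at rt with PIK3CA biotin probe at 500 nM final. Probe-bound PIK3CA was captured on antibody-coated plates and detected with Neutravidin-HRP luminescence; TE50 derived from the dose response.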
For orientation: ELISA stands for enzyme-linked immunosorbent assay.

T1 sequence (P42336 whole entry): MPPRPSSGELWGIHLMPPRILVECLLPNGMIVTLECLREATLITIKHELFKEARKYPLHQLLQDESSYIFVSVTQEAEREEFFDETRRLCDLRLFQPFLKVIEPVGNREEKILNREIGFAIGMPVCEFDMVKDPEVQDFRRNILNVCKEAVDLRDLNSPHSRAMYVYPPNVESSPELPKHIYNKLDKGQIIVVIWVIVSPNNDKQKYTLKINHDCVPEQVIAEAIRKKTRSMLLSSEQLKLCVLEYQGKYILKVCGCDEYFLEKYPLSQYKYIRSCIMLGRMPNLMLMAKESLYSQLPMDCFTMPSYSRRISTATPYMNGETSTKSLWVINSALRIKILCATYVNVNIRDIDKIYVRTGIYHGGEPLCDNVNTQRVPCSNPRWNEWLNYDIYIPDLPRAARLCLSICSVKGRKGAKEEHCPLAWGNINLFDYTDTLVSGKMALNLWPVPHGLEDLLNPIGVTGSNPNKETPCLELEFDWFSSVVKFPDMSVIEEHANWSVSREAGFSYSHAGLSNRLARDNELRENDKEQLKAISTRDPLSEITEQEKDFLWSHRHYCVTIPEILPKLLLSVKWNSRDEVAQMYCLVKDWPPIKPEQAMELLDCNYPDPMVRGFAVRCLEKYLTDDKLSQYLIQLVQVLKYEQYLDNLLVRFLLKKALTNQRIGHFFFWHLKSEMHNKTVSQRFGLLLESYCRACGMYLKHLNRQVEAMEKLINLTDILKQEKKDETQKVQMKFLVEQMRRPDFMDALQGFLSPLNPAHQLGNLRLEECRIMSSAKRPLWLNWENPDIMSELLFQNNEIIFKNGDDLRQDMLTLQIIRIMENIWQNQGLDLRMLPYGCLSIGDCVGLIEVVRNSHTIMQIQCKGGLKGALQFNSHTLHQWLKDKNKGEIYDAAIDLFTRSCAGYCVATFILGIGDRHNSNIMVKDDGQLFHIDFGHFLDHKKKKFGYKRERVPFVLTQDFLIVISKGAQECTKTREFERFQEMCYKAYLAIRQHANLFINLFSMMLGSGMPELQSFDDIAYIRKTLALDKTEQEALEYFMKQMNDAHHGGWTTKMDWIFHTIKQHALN
T1 sequence (P27986 whole entry partner): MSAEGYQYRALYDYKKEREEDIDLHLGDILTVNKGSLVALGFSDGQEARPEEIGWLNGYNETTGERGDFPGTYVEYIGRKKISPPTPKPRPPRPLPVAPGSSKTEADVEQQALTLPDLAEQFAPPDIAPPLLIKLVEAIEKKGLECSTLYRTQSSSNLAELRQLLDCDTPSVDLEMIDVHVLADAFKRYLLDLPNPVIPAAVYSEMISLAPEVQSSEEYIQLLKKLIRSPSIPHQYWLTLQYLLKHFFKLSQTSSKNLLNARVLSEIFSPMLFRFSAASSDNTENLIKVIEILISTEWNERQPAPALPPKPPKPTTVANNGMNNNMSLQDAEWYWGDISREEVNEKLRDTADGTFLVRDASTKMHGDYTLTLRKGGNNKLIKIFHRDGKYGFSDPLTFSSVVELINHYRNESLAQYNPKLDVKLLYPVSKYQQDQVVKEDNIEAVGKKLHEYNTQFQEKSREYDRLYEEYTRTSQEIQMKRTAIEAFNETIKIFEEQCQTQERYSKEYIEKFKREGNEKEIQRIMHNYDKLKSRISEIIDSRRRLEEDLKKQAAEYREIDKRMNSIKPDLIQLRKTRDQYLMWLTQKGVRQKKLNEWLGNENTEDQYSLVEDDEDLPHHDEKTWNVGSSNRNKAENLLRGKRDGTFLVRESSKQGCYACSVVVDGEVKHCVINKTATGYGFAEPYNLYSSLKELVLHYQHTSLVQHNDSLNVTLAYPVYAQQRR
T2 sequence (P42336 whole entry): as the sequence (P42336 whole entry) above
T2 sequence (P27986 whole entry partner): as the sequence (P27986 whole entry partner) above

Turning to `COc1ccc(Cl)c(-c2cc(N(C)C)ccc2S(=O)(=O)N2CCC(F)(C(=O)N[C@@H](C)/C=C\S(C)(=O)=O)CC2)c1` [Compound 87, (S,Z)-1-((2′-chloro-5-(dimethylamino)-5′-methoxy-[1,1′-biphenyl]-2-yl)sulfonyl)-4-fluoro-N-(4-(methylsulfonyl)but-3-en-2-yl)piperidine-4-carboxamide], the results for the IC50 in assay [1] and in assay [2] were 400 nM and 390 nM, respectively.
For `C[C@H](/C=C\S(C)(=O)=O)NC(=O)C1(F)CCN(S(=O)(=O)c2ccc(N3CCCC3)cc2-c2ccc(F)cc2Cl)CC1` [Compound 123, (R,Z)-1-((2′-chloro-4′-fluoro-5-(pyrrolidin-1-yl)-[1,1′-biphenyl]-2-yl)sulfonyl)-4-fluoro-N-(4-(methylsulfonyl)but-3-en-2-yl)piperidine-4-carboxamide], the results for the IC50 in assay [1] and in assay [2] were 63 nM and 820 nM, respectively.
As for `COc1ccc(S(=O)(=O)N2CCC(F)(C(=O)N[C@H](C)/C=C\S(C)(=O)=O)CC2)c(-c2ccccc2Cl)c1` [Compound 25, (R,Z)-1-((2′-chloro-5-methoxy-[1,1′-biphenyl]-2-yl)sulfonyl)-4-fluoro-N-(4-(methylsulfonyl)but-3-en-2-yl)piperidine-4-carboxamide], the IC50 was determined as 238 nM in assay [1] and 290 nM in assay [2].
Take `CCCNC(=O)c1cccc(-c2cc(Cl)ccc2S(=O)(=O)N2CCC(F)(C(=O)N[C@@H](C)/C=C\S(C)(=O)=O)CC2)c1` [Compound 279, (S,Z)-1-((5-chloro-3′-(propylcarbamoyl)-[1,1′-biphenyl]-2-yl)sulfonyl)-4-fluoro-N-(4-(methylsulfonyl)but-3-en-2-yl)piperidine-4-carboxamide]: the figures for the IC50 in assay [1] and in assay [2] were 1530 nM and 1000 nM, respectively.
As for `COc1cc(-c2ccccc2Cl)c(S(=O)(=O)N2CCC(F)(C(=O)N[C@H](C)/C=C\S(C)(=O)=O)CC2)cc1Cl` [Compound 29, (R,Z)-1-((2′,4-dichloro-5-methoxy-[1,1′-biphenyl]-2-yl)sulfonyl)-4-fluoro-N-(4-(methylsulfonyl)but-3-en-2-yl)piperidine-4-carboxamide], the IC50 turned out to be 390 nM in assay [1] and 570 nM in assay [2].
With `CC#CCOc1cccc(-c2cc(Cl)ccc2S(=O)(=O)N2CCC(F)(C(=O)N[C@@H](C)/C=C\S(C)(=O)=O)CC2)c1` [Compound 264, (S,Z)-1-((3′-(but-2-yn-1-yloxy)-5-chloro-[1,1′-biphenyl]-2-yl)sulfonyl)-4-fluoro-N-(4-(methylsulfonyl)but-3-en-2-yl)piperidine-4-carboxamide], the results for the IC50 in assay [1] and in assay [2] were 510 nM and 480 nM, respectively.
For the compound `C[C@H](/C=C\S(C)(=O)=O)NC(=O)C1(F)CCN(S(=O)(=O)c2ccc(N(C)C)cc2-c2ccccc2Cl)CC1` [Compound 92, (R,Z)-1-((2′-chloro-5-(dimethylamino)-[1,1′-biphenyl]-2-yl)sulfonyl)-4-fluoro-N-(4-(methylsulfonyl)but-3-en-2-yl)piperidine-4-carboxamide], the IC50 in assay [1] is 139 nM; in assay [2], 130 nM.
Turning to `CCc1ccc(S(=O)(=O)N2CCC(F)(C(=O)N[C@H](C)/C=C\S(C)(=O)=O)CC2)c(-c2ccccc2)c1` [Compound 112, (R,Z)-1-((5-ethyl-[1,1′-biphenyl]-2-yl)sulfonyl)-4-fluoro-N-(4-(methylsulfonyl)but-3-en-2-yl)piperidine-4-carboxamide], the IC50 turned out to be 660 nM in assay [1] and 780 nM in assay [2].
Take `C=C(C)c1ccc(S(=O)(=O)N2CCC(F)(C(=O)N[C@H](C)/C=C\S(C)(=O)=O)CC2)c(-c2ccccc2Cl)c1` [Compound 109, (R,Z)-1-((2′-chloro-5-(prop-1-en-2-yl)-[1,1′-biphenyl]-2-yl)sulfonyl)-4-fluoro-N-(4-(methylsulfonyl)but-3-en-2-yl)piperidine-4-carboxamide]: the IC50 in assay [1] worked out at 280 nM; in assay [2], 360 nM.
For the compound `C[C@H](/C=C\S(C)(=O)=O)NC(=O)C1(F)CCN(S(=O)(=O)c2ccc(N3CCOCC3)cc2-c2ccccc2Cl)CC1` [Compound 121, (R,Z)-1-((2′-chloro-5-morpholino-[1,1′-biphenyl]-2-yl)sulfonyl)-4-fluoro-N-(4-(methylsulfonyl)but-3-en-2-yl)piperidine-4-carboxamide], the results for the IC50 in assay [1] and in assay [2] were 880 nM and 1000 nM, respectively.
As to `C=Cc1ccc(S(=O)(=O)N2CCC(F)(C(=O)N[C@H](C)/C=C\S(C)(=O)=O)CC2)c(-c2ccccc2Cl)c1` [Compound 107, (R,Z)-1-((2′-chloro-5-vinyl-[1,1′-biphenyl]-2-yl)sulfonyl)-4-fluoro-N-(4-(methylsulfonyl)but-3-en-2-yl)piperidine-4-carboxamide], the IC50 in assay [1] is 320 nM; in assay [2], 200 nM.
Consider `C[C@@H](/C=C\S(C)(=O)=O)NC(=O)C1(F)CCN(S(=O)(=O)c2ccc(Cl)cc2-c2cccc(OC3CC3)c2)CC1` [Compound 15, (S,Z)-1-((5-chloro-3′-cyclopropoxy-[1,1′-biphenyl]-2-yl)sulfonyl)-4-fluoro-N-(4-(methylsulfonyl)but-3-en-2-yl)piperidine-4-carboxamide], for which the results for the IC50 in assay [1] and in assay [2] were 400 nM and 410 nM, respectively.
Consider `COc1ccc(S(=O)(=O)N2CCC(F)(C(=O)N[C@H](C)/C=C/C#N)CC2)c(-c2ccccc2Cl)c1` [Compound 229, (R,E)-1-((2′-chloro-5-methoxy-[1,1′-biphenyl]-2-yl)sulfonyl)-N-(4-cyanobut-3-en-2-yl)-4-fluoropiperidine-4-carboxamide], for which the IC50 is 970 nM in assay [1] and 1100 nM in assay [2].
For `COc1cc(-c2ccccc2C)c(S(=O)(=O)N2CCC(F)(C(=O)N[C@@H](C)/C=C\S(C)(=O)=O)CC2)cn1` [Compound 190, (S,Z)-4-fluoro-1-((6-methoxy-4-(o-tolyl)pyridin-3-yl)sulfonyl)-N-(4-(methylsulfonyl)but-3-en-2-yl)piperidine-4-carboxamide], the IC50 came out at 61 nM in assay [1] and 110 nM in assay [2].
With `COc1cccc(-c2cc(N(C)C)ccc2S(=O)(=O)N2CCC(F)(C(=O)N[C@@H](C)/C=C\S(C)(=O)=O)CC2)c1` (racemic) [Compound 86, 1-[4-(Dimethylamino)-2-(3-methoxyphenyl)phenyl]sulfonyl-4-fluoro-N-[rac-(Z, 1S)-1-methyl-3-methylsulfonyl-allyl]piperidine-4-carboxamide], the IC50 in assay [1] was found to be 107 nM; in assay [2], 60 nM.
Turning to `COc1cc(-c2ccccc2Cl)c(S(=O)(=O)N2CCC(F)(C(=O)N[C@H](C)/C=C\S(C)(=O)=O)CC2)cn1` [Compound 186, 1-[[4-(2-chlorophenyl)-6-methoxy-3-pyridyl]sulfonyl]-4-fluoro-N—[(Z,1R)-1-methyl-3-methylsulfonyl-allyl]piperidine-4-carboxamide], the IC50 was determined as 226 nM in assay [1] and 493 nM in assay [2].
With `COc1ccc(S(=O)(=O)N2CCC(F)(C(=O)N[C@@H](C)/C=C\S(C)(=O)=O)CC2)c(-c2ccccc2)c1` [Compound 4, (S,Z)-4-fluoro-1-((5-methoxy-[1,1′-biphenyl]-2-yl)sulfonyl)-N-(4-(methylsulfonyl)but-3-en-2-yl)piperidine-4-carboxamide], the IC50 in assay [1] worked out at 206 nM; in assay [2], 140 nM.
Consider `COc1ccc(S(=O)(=O)N2CCC(F)(C(=O)N[C@H](C)/C=C\S(C)(=O)=O)CC2)c(-c2cccc(Cl)c2)c1` [Compound 22, (R,Z)-1-((3′-chloro-5-methoxy-[1,1′-biphenyl]-2-yl)sulfonyl)-4-fluoro-N-(4-(methylsulfonyl)but-3-en-2-yl)piperidine-4-carboxamide], for which the figures for the IC50 in assay [1] and in assay [2] were 785 nM and 770 nM, respectively.
In the same order, the values of `CCc1ccc(S(=O)(=O)N2CCC(F)(C(=O)N[C@H](C)/C=C\S(C)(=O)=O)CC2)c(-c2ccccc2Cl)c1` [Compound 111, (R,Z)-1-((2′-chloro-5-ethyl-[1,1′-biphenyl]-2-yl)sulfonyl)-4-fluoro-N-(4-(methylsulfonyl)but-3-en-2-yl)piperidine-4-carboxamide] are 210 nM and 320 nM.
In the same order, the values of `C[C@H](/C=C\S(C)(=O)=O)NC(=O)C1(F)CCN(S(=O)(=O)c2ncc(Br)cc2-c2ccccc2Cl)CC1` [Compound 218, (R,Z)-1-((5-bromo-3-(2-chlorophenyl)pyridin-2-yl)sulfonyl)-4-fluoro-N-(4-(methylsulfonyl)but-3-en-2-yl)piperidine-4-carboxamide] are 440 nM and 560 nM.
For the compound `COc1ccc(Cl)c(-c2cc(Cl)ncc2S(=O)(=O)N2CCC(F)(C(=O)N[C@@H](C)/C=C\S(C)(=O)=O)CC2)c1` [Compound 271, (S,Z)-1-((6-chloro-4-(2-chloro-5-methoxyphenyl)pyridin-3-yl)sulfonyl)-4-fluoro-N-(4-(methylsulfonyl)but-3-en-2-yl)piperidine-4-carboxamide], the IC50 in assay [1] was 209 nM; in assay [2], 170 nM.
As for `COc1cc(-c2ccccc2Cl)c(S(=O)(=O)N2CCC(F)(C(=O)N[C@H](C)/C=C\S(C)(=O)=O)CC2)cc1OC` [Compound 202, (R,Z)-1-((2′-chloro-4,5-dimethoxy-[1,1′-biphenyl]-2-yl)sulfonyl)-4-fluoro-N-(4-(methylsulfonyl)but-3-en-2-yl)piperidine-4-carboxamide], the IC50 in assay [1] and in assay [2] was 180 nM in each case.
`COc1cc(-c2ccccc2C)c(S(=O)(=O)N2CCC(F)(C(=O)N[C@H](C)/C=C\S(C)(=O)=O)CC2)cn1` [Compound 193, (R,Z)-4-fluoro-1-((6-methoxy-4-(o-tolyl)pyridin-3-yl)sulfonyl)-N-(4-(methylsulfonyl)but-3-en-2-yl)piperidine-4-carboxamide]: the IC50 in assay [1] was 284 nM; in assay [2], 290 nM.
